Where a name gives a salt, the structure may show the parent alone.
Biological target: T1, PDEV (Homo sapiens, UniProt O76074)
T1 construct: PDEV was isolated from rabbit and human tissues according to the protocol described by Boolell et al; from tissue; host or cells: human tissue, homogenate supernatant fractionated on Mono Q
Assay: PDE assay: inhibition of PDEV isolated from human tissue
Assay type: biochemical
Conditions: for IC50: PDEV inhibitory activity
Experimental: Briefly, rabbit or human tissues were homogenized in an ice-cold buffer solution containing 20 mM HEPES (pH 7.2), 0.25M sucrose, 1 mM EDTA, and 1 mM phenylmethylsulphonyl fluoride (PMSF). The homogenates were centrifuged at 100,000 g for 60 minutes at 4° C. The supernatant was filtered through […] filter and loaded on a Pharmacia Mono Q anion exchange column (1 ml bed volume) that was equilibrated with 20 mM HEPES, 1 mM EDTA and 0.5 mM PMSF. After washing out unbound proteins, the enzymes were eluted with a linear gradient of 100-600 mM NaCl in the same buffer (35 to 50 ml total, depending on the tissue. Enzymes from the skeletal muscle, corpus cavernosum, retina, heart and platelet were eluted with 35, 40, 45, 50, and 50 ml respectively.) The column was run at a flow rate of 1 ml/min and 1 ml fractions were collected. The fractions comprising various PDE activities were pooled separately and used in later studies.
The assays were adapted to a 96-well format. The enzyme was assayed in 5 mM MgCl2, 15 mM Tris HCl (pH 7.4), 0.5 mg/ml bovine serum albumin, 1 μM cGMP or cAMP, 0.1 μCi [^3H]-cGMP or [^3H]-cAMP, and 2-10 μl of column elution. The total volume of the assay was 100 μl. The reaction mixture was incubated at 30° C. for 30 minutes. The reaction was stopped by boiling for 1 minute and then cooled down on ice. The resulting [^3H]5′-mononucleotides were further converted to uncharged [^3H]-nucleosides by adding 25 μl 1 mg/ml snake venom (Ophiophagus hannah) and incubating at 30° C. for 10 minute. The reaction was stopped by the addition of 1 ml Bio-Rad AG1-X2 resin slurry (1:3). All the charged nucleotides were bound by the resin and only uncharged [^3H]-nucleosides remained in the supernatant after centrifuging. An aliquot of 200 μl was taken and counted by liquid scintillation. PDE activity was expressed as pmol cyclic nucleotide hydrolyzed/min/ml of enzyme preparation.
Inhibitor studies were carried out in assay buffer with a final concentration of 10% DMSO.
The % inhibition of the maximum substrate conversion (by the enzyme in the absence of inhibitor) was calculated for each test compound concentration. Using GraphPad Prism's nonlinear regression analysis (sigmoidal dose response), the % inhibition vs log of the test compound concentration was plotted to determine the IC50. Under conditions where substrate concentration <<Km of the enzyme (Km=substrate concentration at which half of the maximal velocity of the enzyme is achieved), Ki is equivalent to the IC50 value.
Unless otherwise noted, PDEV inhibitory activities were measured using human tissue. The abbreviation “stereo” refers to the stereogenic configuration, the abbreviation “Rac” shall denote a racemic mixture.

## COc1ccc(-c2cnc(N3Cc4c([nH]c5ccccc5c4=O)C3c3ccc4c(c3)OCO4)nc2)cc1OC (racemic) [Compound 1, 1,2,3,4-Tetrahydro-2-[5-(3,4-dimethoxyphenyl)-pyrimidin-2-yl]-3-(3,4-methylenedioxyphenyl)-9H-pyrrolo-[3,4-b]quinolin-9-one]
  IC50: 0.165 nM

## O=c1c2c([nH]c3ccccc13)C(c1ccc3c(c1)OCO3)NC2 (racemic) [Compound 4, 1,2,3,4-Tetrahydro-3-(3,4-methylenedioxyphenyl)-9H-pyrrolo-[3,4-b]quinolin-9-one, hydrochloride salt]
  IC50: 664 nM

## O=c1c2c([nH]c3ccccc13)C(c1ccc3c(c1)OCO3)N(Cc1ccncc1)C2 (racemic) [Compound 5, 1,2,3,4-Tetrahydro-3-(3,4-methylenedioxyphenyl)-2-(pyridin-4-yl)methyl-9H-pyrrolo-[3,4-b]quinolin-9-one]
  IC50: 688 nM

## COC(=O)c1ccc(/C=C/C(=O)N2Cc3c([nH]c4ccccc4c3=O)C2c2ccc3c(c2)OCO3)cc1 (racemic) [Compound 6, (E)-4-[3-Oxo-3-[1,2,3,4-tetrahydro-3-(3,4-methylenedioxyphenyl)-9H-pyrrolo-[3,4-b]quinolin-9-one-2-yl]-1-propenyl]benzoic Acid Methyl Ester]
  IC50: 0.507 nM

## Cc1ccc(-c2cnc(N3Cc4c([nH]c5ccccc5c4=O)C3c3ccc4c(c3)OCO4)nc2)cc1 (racemic) [Compound 7, 1,2,3,4-Tetrahydro-2-[5-(4-methylphenyl)-pyrimidin-2-yl]-3-(3,4-methylenedioxyphenyl)-9H-pyrrolo-[3,4-b]quinolin-9-one]
  IC50: 0.325 nM

## O=C(O)c1ccc(/C=C/C(=O)N2Cc3c([nH]c4ccccc4c3=O)C2c2ccc3c(c2)OCO3)cc1 (racemic) [Compound 8, (E)-4-[3-Oxo-3-[1,2,3,4-tetrahydro-3-(3,4-methylenedioxyphenyl)-9H-pyrrolo-[3,4-b]quinolin-9-one-2-yl]-1-propenyl]benzoic acid]
  IC50: 0.828 nM

## O=C(c1cc2ccc(O)cc2o1)N1Cc2c(nc3ccccc3c2O)C1c1ccc2c(c1)OCO2 (racemic) [Compound 9, 1,2,3,4-Tetrahydro-3-(3,4-methylenedioxyphenyl)-2-(6-hydroxy-2-benzo-furoyl)-9H-pyrrolo[3,4-b]quinolin-9-one]
  IC50: 0.46 nM

## Oc1c2c(nc3ccccc13)C(c1ccc3c(c1)OCO3)N(c1ncccn1)C2 (racemic) [Compound 11, 1,2,3,4-Tetrahydro-2-(pyrimidin-2-yl)-3-(3,4-methylenedioxyphenyl)-9H-pyrrolo-[3,4-b]quinolin-9-one]
  IC50: 3.73 nM

## O=C(c1ccc(-c2ccc([N+](=O)[O-])cc2)o1)N1Cc2c(nc3ccccc3c2O)C1c1ccc2c(c1)OCO2 (racemic) [Compound 16, 1,2,3,4-Tetrahydro-3-(3,4-methylenedioxyphenyl)-2-[5-(4-nitrophenyl)-furoyl]-9H-pyrrolo[3,4-b]quinolin-9-one]
  IC50: 0.39 nM

## O=c1c2c([nH]c3ccccc13)C(c1ccc3c(c1)CCO3)NC2 (racemic) [Compound 17, 1,2,3,4-Tetrahydro-3-(2,3-dihydrobenzofuran-5-yl)-9H-pyrrolo-[3,4-b]quinolin-9-one, hydrochloride salt]
10 μM test compound
  inhibition at 10 µM: 65%

## COC(=O)c1ccc(/C=C/C(=O)N2Cc3c([nH]c4ccccc4c3=O)C2c2ccc3c(c2)CCO3)cc1 (racemic) [Compound 20, (E)-4-[3-Oxo-3-[1,2,3,4-tetrahydro-3-(2,3-dihydrobenzofuran-5-yl)-9H-pyrrolo-[3,4-b]quinolin-9-one-2-yl]-1-propenyl]benzoic acid, methyl ester]
  IC50: 0.53 nM

## O=C(c1ccc(-c2ccc(O)cc2)o1)N1Cc2c(nc3ccccc3c2O)C1c1ccc2c(c1)OCO2 (racemic) [Compound 22, 1,2,3,4-Tetrahydro-3-(3,4-methylenedioxyphenyl)-2-[5-(4-hydroxyphenyl)furoyl]-9H-pyrrolo[3,4-b]-quinolin-9-one]
  IC50: 0.86 nM

## O=C(c1cccnc1O)N1Cc2c([nH]c3ccccc3c2=O)C1c1ccc2c(c1)OCO2 (racemic) [Compound 25, 1,2,3,4-Tetrahydro-3-(3,4-methylenedioxyphenyl)-2-[2-hydroxynicotinoyl)-9H-pyrrolo[3,4-b]-quinolin-9-one]
  IC50: 1.57 nM

## Nc1ccc(-c2ccc(C(=O)N3Cc4c([nH]c5ccccc5c4=O)C3c3ccc4c(c3)OCO4)o2)cc1 (racemic) [Compound 26, 1,2,3,4-tetrahydro-3(3,4-methylenedioxyphenyl)2-[5-(4-aminophenyl)-furoyl]-9H-pyrrolo[3,4-b]quinolin-9-one]
  IC50: 1.92 nM

## O=C(c1ccc(-c2ccc(OCCN3CCCC3)cc2)o1)N1Cc2c(nc3ccccc3c2O)C1c1ccc2c(c1)OCO2 (racemic) [Compound 45, 1,2,3,4-Tetrahydro-3-(3.4-methylenedioxyphenyl)-2-(5-(4-(2-(1-pyrrolidinyl)ethoxy)phenyl)-furoyl)-9H-pyrrolo[3,4-b]quinolin-9-one]
  IC50: 1.33 nM

## O=c1c2c([nH]c3ccccc13)C(c1ccc3c(c1)OCO3)N(Cc1ccccc1)C2 (racemic) [Compound 54, 1,2,3,4-Tetrahydro-2-benzyl-3-(3,4-methylenedioxyphenyl)-9H-pyrrolo-[3,4-b]quinolin-9-one]
  IC50: 234 nM

## O=c1c2c([nH]c3ccccc13)C(c1ccc3c(c1)OCO3)N(c1ncc(Br)cn1)C2 (racemic) [Compound 55, 1,2,3,4-Tetrahydro-2-(5-bromopyrimidin-2-yl)-3-(3,4-methylenedioxyphenyl)-9H-pyrrolo-[3,4-b]quinolin-9-one]
  IC50: 4.48 nM

## Oc1c2c(nc3ccccc13)C(c1ccc3c(c1)OCO3)N(c1ncc(-c3cccnc3)cn1)C2 (racemic) [Compound 56, 1,2,3,4-Tetrahydro-2-[5-(3-pyridinyl)-pyrimidin-2-yl]-3-(3,4-methylenedioxyphenyl)-9H-pyrrolo-[3,4-b]quinolin-9-one]
  IC50: 1.24 nM

## O=c1c2c([nH]c3ccccc13)C(c1ccc3c(c1)OCO3)N(c1ncc(-c3ccncc3)cn1)C2 (racemic) [Compound 57, 1,2,3,4-Tetrahydro-2-[5-(4-pyridinyl)-pyrimidin-2-yl]-3-(3,4-methylenedioxyphenyl)-9H-pyrrolo-[3,4-b]quinolin-9-one]
  IC50: 0.84 nM

## Oc1c2c(nc3ccccc13)C(c1ccc3c(c1)CCO3)N(c1ncc(Br)cn1)C2 (racemic) [Compound 74]
  IC50: 1.9 nM

## O=c1c2c([nH]c3ccccc13)C(c1ccc3c(c1)OCO3)N(c1ncc(-c3ccncc3)cn1)C2 (racemic) [Compound 99]
  IC50: 0.84 nM

## Oc1c2c(nc3ccccc13)C(c1ccc3c(c1)OCO3)N(c1ncc(-c3cccnc3)cn1)C2 (racemic) [Compound 100]
  IC50: 0.52 nM

## O=C(c1ccc(-c2ccccc2)o1)N1Cc2c(nc3ccccc3c2O)C1c1ccc2c(c1)OCO2 (racemic) [Compound 110]
  IC50: 0.755 nM

## O=C(c1ccc(-c2ccsc2)o1)N1Cc2c(nc3ccccc3c2O)C1c1ccc2c(c1)OCO2 (racemic) [Compound 112]
  IC50: 0.699 nM

## O=C(c1ccc(-c2ccco2)o1)N1Cc2c(nc3ccccc3c2O)C1c1ccc2c(c1)OCO2 (racemic) [Compound 117]
  IC50: 4.75 nM

## Oc1c2c(nc3ccccc13)C(c1ccc3c(c1)CCO3)N(c1ncccn1)C2 (racemic) [Compound 123, 3-(2,3-Dihydro-benzofuran-5-yl)-2-pyrimidin-2-yl-1,2,3,4-tetrahydro-pyrrolo[3,4-b]quinolin-9-one]
  IC50: 12.8 nM

## O=C(c1ccc(-c2cccc(C(F)(F)F)c2)o1)N1Cc2c([nH]c3ccccc3c2=O)C1c1ccc2c(c1)OCO2 (centres unmarked) [Compound 13, 1,2,3,4-Tetrahydro-3-(3,4-methylenedioxyphenyl)-2-[5-(3-trifluoromethylphenyl)furoyl]-9H-pyrrolo-[3,4-b]quinolin-9-one]
  IC50: 0.227 nM

## COc1ccc(-c2cnc(N3Cc4c([nH]c5ccccc5c4=O)C3c3ccc(OC)c(OC)c3)nc2)cc1OC (centres unmarked) [Compound 15, 1,2,3,4-Tetrahydro-[5-(3,4-dimethoxyphenyl)-pyrimidin-2-yl]-3-(3,4-dimethoxyphenyl)-9H-pyrrolo[3,4-b]quinolin-9-one]
  IC50: 1160 nM

## COc1ccc(-c2ccc(C(=O)N3Cc4c([nH]c5ccccc5c4=O)C3c3ccc4c(c3)OCO4)o2)cc1 (centres unmarked) [Compound 21, 1,2,3,4-Tetrahydro-3-(3,4-methylenedioxyphenyl)-2-[5-(4-methoxyphenyl)-furoyl]-9H-pyrrolo[3,4-b]-quinolin-9-one]
  IC50: 1.93 nM

— patent publication US6818646B2 (priority 2000, dated 2004)
